Data taken from article PMC6459484, “Synthetic surfactin analogues have improved anti-PEDV properties” (PLoS ONE, 2019).
Values after ≈ are worked out from the molar mass of the structure shown. “Also recorded” adds a separate entry of the source. Square brackets hold non-standard residues; d marks the D form. Peptide text beside a SMILES is read from it. * marks the point of attachment. X1 = CCCCCCCc1ccc(-c2ccc(C(=O)*)cc2)cc1; Palmitoyl = CCCCCCCCCCCCCCCC(=O)*

What was measured:
[1] = tested on: PEDV CV777; test: Plaque reduction assay (anti-PEDV activity); assay type: cell-based, Porcine epidemic diarrhea virus; conditions: for Antiviral potency relative to SLP3: anti-PEDV plaque reduction, compared with SLP3; for Anti-PEDV potency compared with surfactin: plaque reduction assay, result in words
Description: Cercopithecus aethiops kidney epithelial cells (Vero, ATCC, CCL-81) were cultured in high glucose DMEM (Gibco, US), supplemented with 10% fetal bovine serum (FBS, GIBCO), at 37 °C in a 5% CO2 humidified atmosphere. Cells were routinely seeded at a density of 2×10^5 /mL in plastic tissue culture flasks (25 cm^2 flasks, Corning, USA) and passaged every 3–4 days. PEDV CV777 was provided by the Jiangsu Academy of Agricultural Sciences (JAAS).
Vero cells were seeded at 2 × 10^5 cells/well in 24-well tissue culture plates and incubated 18–24 h at 37 °C until approximately 95% confluency was reached. 100 PFU of PEDV mixed with an equal volume of SLP in DMEM or DMEM alone were incubated 10 minutes at 37 °C, then added into the wells of the Vero cells and incubated 30 minutes at 4 °C. Cells were washed 3 times with DMEM then overlaid with DMEM/1% agar and incubated 72 hours at 37 °C. The cells were fixed with 4% formaldehyde, then stained with 0.1% crystal violet after the agar overlay was removed. The data are representative of 3 biological replicates and each plaque assay was performed in triplicate and values are expressed as means ± the standard deviation. Curve fitting and EC50 were calculated with GraphPad Prism 6 using the log[inhibitor] vs. response equation.
The SLPs were tested for anti-PEDV activity using a plaque reduction assay. Serial dilutions of SLPs were incubated with an equal volume of PEDV then aliquoted onto precooled cells in 12-well plates. After the virus has adsorbed to the cells at 4 °C, SLPs were washed away. The adsorbed virus particles were then counted by plaque forming assays (Fig 2A). The results were fitted to a sigmoid-curve and plotted Fig 2B. All SLPs have potent anti-PEDV effects above 50 μg/ml, but differences in their anti-PEDV effect.
Fig 2 Anti-PEDV activities of lipopeptides. (A) PEDV was incubated with series concentrations of SLPs for 10 minutes at 37 °C. After washing cells of unadsorbed virus, the remaining infectious particles was detected by plaque assay. (B) Anti-PEDV activity (% remaining PFU) plotted as a function of lipopeptide concentration. The results of three independent experiments are shown as means ± standard deviation. 100% represents plaque counts in the control (no lipopeptide) sample.

[2] = Critical micelle concentration by surface tension (ring method); assay type: physicochemical; conditions: samples stood 30 min at 22 °C, intersection of two linear regression lines
Description: Surface tensions were measured using the ring method. Samples were freshly prepared in a testing flask and allowed to stand for 30 minutes at 22 °C. Surface tension measurements were made using a surface tensiometer (HLD-LST-II, HENLIDA Co., Ltd, China). Linear regressions of the drop and the flat area were performed separately for the surface tension-concentration curve. The concentration at the intersection of the two lines is the critical micelle concentration (CMC).
The CMC was calculated by measuring the surface tension of each SLP over a range of concentrations. […] Linear regressions were performed independently using the data on the descending part of the curve below the CMC and the equilibrium part above the CMC. The intersection of the linear regression lines corresponds to the CMC (Table 3).
Fig 4 Critical micelle concentrations of the SLPs. CMCs were determined for SDS, surfactin, and SLPs by surface tension. The intersection of the two linear regression lines corresponds to the CMC value, (shown by the dotted lines).

[3] = tested on: porcine RBCs; assay type: cell-based; conditions: for CC50 (50% cytotoxicity concentration, hemolysis): red cells of porcine, 1 h
Description: Hemolytic activity was measured according to the methods described in Jingdan, with some modifications. Briefly, serial dilutions of SLPs were added to 200 uL of a 1% suspension of porcine RBCs in PBS, followed by incubation for 1 h at 37 °C. Cells were centrifuged at 1000 g for 10 min, then 100 uL of each supernatant was transferred to wells of a 96-well plate. The optical density at 540 nm was measured using a microplate reader (Infinite 200 PRO, Tecan Group Ltd., Switzerland) and % hemolysis was calculated using the formula: Hemolysis(%)=ODS-ODB/ODP-ODB×100% where ODS, ODB, and ODP represent the optical density of the SLP-treated samples, negative control and positive control, respectively. 1% Triton X-100 was used for the positive control. Each sample was run in triplicate.
Fig 3 Hemolytic activity of lipopeptides. (A) The indicated concentration of SLPs were added to a 1% porcine RBC suspension in PBS, followed by incubation for 1 h at 37 °C and centrifugation. Pictures were taken after collecting a portion of the supernatant for quantification of hemolysis. (B) Hemolytic curve. Hemolysis (measured at OD540) is shown as a function of SLP concentration. 100% represents the OD obtained using 0.1% Triton X-100-treated red blood cells.

[4] = tested on: PEDV; test: Time of addition assay (viral N protein by western blot, viral RNA by qRT-PCR); assay type: cell-based, Porcine epidemic diarrhea virus; conditions: Vero cells, 1000 PFU PEDV, harvested 12 hpi, SLP5 50 μg/ml, surfactin 20 μg/ml; for PEDV replication (nucleic acid and protein levels), reagent present throughout the experiment (treatment group 2) or at any stage: DEPE 5 μg/ml, 3 independent experiments
Description: Time of addition assay was performed according to the procedures described, with modifications. Confluent Vero cells in 12-well plates were infected with 1000 PFU of PEDV and incubated for 1 hr at 4 °C to synchronize infection. The inoculum was removed and 1 mL of 37 °C DMEM was added to each well, cells were then placed at 37 °C in a humidified incubator. At the indicated time points, SLP5, surfactin, or dielaidoyl-phosphatidylethanolamine (DEPE, AvantiPolarLipids, Alabaster, AL) was added dropwise to cells or virus to a final concentration of 50 μg/ml, 20 μg/ml, or 5 μg/ml and incubated a further 12 hours at 37 °C. Viral nucleic acid and protein levels in the cells were measured by qRT-PCR and western-blot respectively. The data shown is representative of 3 independent experiments.
Total RNA was extracted from cells using TRIzol Reagent (Invitrogen) according to the manufacturer’s instructions. cDNA was generated by reverse transcription using HiScript TM QRT SuperMix for qPCR (Vazyme) according to the manufacturer’s instructions. PEDV nucleic acid levels were assessed by measuring the viral nucleoprotein (N) using qRT-PCR with the TaKaRa SYBR Green qPCR Kit (TaKaRa). Primer sequences were as follows: PEDV-N-F (sense), 5’-[…]-3’; PEDV-N-R (antisense), 5’-[…]-3’; C-sabaeus-GAPDH-F, 5’-[…]-3’; C-sabaeus-GAPDH-R, 5’-[…]-3’. Gene level was calculated using the comparative Ct method and normalized to the endogenous levels of GAPDH.
Boiled cell lysates were subjected to SDS-PAGE then transferred to PVDF membrane (Roche, Basel, Switzerland) using a semi-dry transfer apparatus (GE, Little Chalfont, Buckinghamshire, UK). Membranes were blocked in 5% non-fat milk in TBS containing 0.01% Tween-20 (TBST) then incubated overnight at 4 °C with anti-PEDV N-protein monoclonal antibody (Median Diagnostics, South Korea) diluted in TBST with 1% BSA. Membranes were washed 30 min in TBST followed by incubation for 1 h at RT with 1:5000 HRP goat anti-mouse IgG antibody (ABGENT, San Diego, CA, USA) then thrice washed for 15 min in TBST. Membranes were incubated with ECL reagent (Thermo, Waltham, MA, USA) and imaged using a ChemiDoc™ system (Bio-Rad, Hercules, CA, USA).
Since SLP5 was the most promising surfactin analogue, we chose it for further study. Time of addition assays were performed to determine whether the SLP5 exerts its anti-PEDV effect at the same stage during infection as surfactin. Since surfactin acts directly on virions, the experiment was designed to examine events early in the infection process. Fig 6A summarizes the experimental plan and the eight treatments tested. Briefly, SLP5, surfactin, or DEPE was added to virus alone, cells alone, or to cells and virus together prior to infection, during virus adsorption, during virus invasion (1 h post infection at 37 °C), or during replication (1–12 hpi). Samples were harvested 12 hours after infection, and analyzed to measure cellular levels of viral protein (Fig 6B and 6C) and viral RNA (Fig 6D). […] Other antiviral mechanisms of SLP5 and surfactin cannot be ruled out since PEDV replication is inhibited to different degrees in some of the other treatment groups.
Fig 6 Time-of-addition experiments. (A) Vero cells were treated with SLP5, surfactin, or DEPE at different time points before, during, and after infection. […] (B) The PEDV nucleoprotein was detected by Western-blot, and (C) quantitated by band intensity relative to the internal control, GAPDH. (D) The PEDV genome was detected by qRT-PCR. […]

[5] = 100 PFU PEDV pre-incubated with lipopeptide 10 min at 37 °C, adsorbed to Vero cells 30 min at 4 °C, washed, agar overlay 72 h, 3 biological replicates each in triplicate, mean ± SD, log[inhibitor] vs. response fit

| EC50 ([1]; 72 h) | CMC [2] | EC50 [1, 5] | Compound | Antiviral potency relative to SLP3 [1] | Anti-PEDV potency compared with surfactin [1] | Hemolytic activity, result in words [3] | CC50 (50% cytotoxicity concentration, hemolysis) [3] | PEDV replication (nucleic acid and protein levels), reagent present throughout the experiment (treatment group 2) or at any stage [4] | PEDV replication, treatment group 5 ([4]; same as group 2 (little replication)) |
| --- | --- | --- | --- | --- | --- | --- | --- | --- | --- |
| 2.6 ± 0.2 µg/mL (≈ 3.15 µM) | 20.2 µg/mL |  | CCCCCCCCCCCCCCCC(=O)N[C@@H](CCC(=O)O)C(=O)N[C@H](C(=O)N[C@H](CC(C)C)C(=O)N[C@H](CC(C)C)C(=O)N[C@@H](CC(=O)O)C(N)=O)C(C)C [SLP8] (Palmitoyl-EV[dL][dL]D-NH2) | 6.5 fold | higher potency than surfactin; also recorded: exceeded | low hemolytic activity | 217.5 ± 18.9 µg/mL (≈ 264 µM) |  |  |
|  |  |  | CCCCCCCC/C=C/CCCCCCCC(=O)OC[C@H](COP(=O)(O)OCCN)OC(=O)CCCCCCC/C=C/CCCCCCCC [DEPE, dielaidoyl-phosphatidylethanolamine] |  |  |  |  | did not affect PEDV replication at any stage |  |
|  | 17.1 µg/mL | 14.0 ± 0.6 µg/mL (≈ 17 µM) | CCCCCCCCCCCCCCCC(=O)N[C@@H](CCC(=O)O)C(=O)N[C@H](C(=O)N[C@@H](CC(C)C)C(=O)N[C@@H](CC(=O)O)C(=O)N[C@@H](CC(C)C)C(N)=O)C(C)C [SLP7] (Palmitoyl-EVLDL-NH2) |  |  |  | 274.1 ± 21.0 µg/mL (≈ 332 µM) |  |  |
| 6.1 ± 0.3 µg/mL (≈ 7.29 µM) | 22.4 µg/mL |  | CCCCCCCCCCCCCCCC(=O)N[C@@H](CCCCN)C(=O)N[C@H](C(=O)N[C@H](CC(C)C)C(=O)N[C@@H](CCCCN)C(=O)N[C@H](CC(C)C)C(N)=O)C(C)C [SLP6] (Palmitoyl-KV[dL]K[dL]-NH2) |  | higher potency than surfactin | strongest hemolytic activity | 12.6 ± 0.4 µg/mL (≈ 15 µM) |  |  |
|  |  | 10.6 ± 0.5 µg/mL (≈ 12.3 µM) | CCCCCCCc1ccc(-c2ccc(C(=O)N[C@@H](CCC(=O)O)C(=O)N[C@H](C(=O)N[C@H](CC(C)C)C(=O)N[C@@H](CC(=O)O)C(=O)N[C@H](CC(C)C)C(N)=O)C(C)C)cc2)cc1 [SLP10] (X1-EV[dL]D[dL]-NH2) |  |  |  | 82.8 ± 3.4 µg/mL (≈ 95.7 µM) |  |  |
|  | 9.4 µg/mL | 12.8 ± 0.5 µg/mL (≈ 15.5 µM) | CCCCCCCCCCCCCCCC(=O)N[C@@H](CCC(=O)O)C(=O)N[C@@H](CC(=O)O)C(=O)N[C@H](C(=O)N[C@H](CC(C)C)C(=O)N[C@H](CC(C)C)C(N)=O)C(C)C [SLP9] (Palmitoyl-EDV[dL][dL]-NH2) |  |  |  | 52.2 ± 2.0 µg/mL (≈ 63.3 µM) |  |  |
| 16.5 ± 0.6 µg/mL (≈ 20 µM) | 15.0 µg/mL |  | CCCCCCCCCCCCCCCC(=O)N[C@@H](CCC(=O)O)C(=O)N[C@H](C(=O)N[C@H](CC(C)C)C(=O)N[C@@H](CC(=O)O)C(=O)N[C@H](CC(C)C)C(=O)O)C(C)C [SLP5] (Palmitoyl-EV[dL]D[dL]-OH) |  | equaled |  | 847.2 ± 124.9 µg/mL (≈ 1030 µM) | little PEDV replication occurs | act directly on the virus |
|  | 296 µg/mL |  | CCCCCCCCCCCCOS(=O)(=O)[O-].[Na+] [SDS, reference compound] |  |  |  |  |  |  |
| 5.4 ± 0.4 µg/mL (≈ 7.61 µM) | 10.6 µg/mL |  | CCCCCCCCCCCCCCCC(=O)N[C@@H](CCC(=O)O)C(=O)N[C@H](C(=O)N[C@H](CC(C)C)C(=O)N[C@H](CC(C)C)C(N)=O)C(C)C [SLP4] (Palmitoyl-EV[dL][dL]-NH2) | about 3 fold | higher potency than surfactin |  | 12.9 ± 0.2 µg/mL (≈ 18.2 µM) |  |  |
